# Biological target: T1, Serine/threonine-protein kinase/endoribonuclease IRE1 [D688N] (Homo sapiens, UniProt O75460, D688N)
# T1 construct: gene ERN1
# Assay: IRE1α TR-FRET Competition Binding Assay
# Method: To determine the affinity of compound binding to the kinase domain of IRE1 alpha, a Time Resolved Fluorescence Resonance Energy Transfer (TR-FRET) competition assay was used. A His-tagged IRE1 alpha kinase dead construct containing the kinase and RNase domains (KR, AA G547-L977, D688N) was expressed in Sf9 insect cells. The purified protein (final concentration 0.006 μM micromolar) was pre-incubated with anti-His Europium labeled antibody (Life Technologies PV5596, final concentration 0.002 μM micromolar) for one hour at 4° C. in 1X TR-FRET Assay Buffer (50 mM HEPES, pH 7.5.10 mM MgCl2, 0.083 mM Brij 35, 1 mM DTT, and 0.1% bovine gamma globulin) prior to addition to test compounds. A fluorescent labeled probe based on an ATP competitive inhibitor (Kinase Tracer 236, Life Technologies PV5592) is added to a final concentration of 0.1 μM (micromolar). Reactions were carried out for one hour at room temperature in a final volume of 20 μL (microliter) in 384 well white ProxiPlates (Perkin Elmer 6008289). Binding of the tracer to the IRE1 protein alpha was detected in an Envision instrument (PerkinElmer) equipped with a TRF laser option and a LANCE/Delfia Dual/Bias D400/D630 mirror (Ex 347 nm, 1st Em 665 nm, 2nd Em 615 nm).
# T1 sequence (O75460 19-977 D688N limits assumed): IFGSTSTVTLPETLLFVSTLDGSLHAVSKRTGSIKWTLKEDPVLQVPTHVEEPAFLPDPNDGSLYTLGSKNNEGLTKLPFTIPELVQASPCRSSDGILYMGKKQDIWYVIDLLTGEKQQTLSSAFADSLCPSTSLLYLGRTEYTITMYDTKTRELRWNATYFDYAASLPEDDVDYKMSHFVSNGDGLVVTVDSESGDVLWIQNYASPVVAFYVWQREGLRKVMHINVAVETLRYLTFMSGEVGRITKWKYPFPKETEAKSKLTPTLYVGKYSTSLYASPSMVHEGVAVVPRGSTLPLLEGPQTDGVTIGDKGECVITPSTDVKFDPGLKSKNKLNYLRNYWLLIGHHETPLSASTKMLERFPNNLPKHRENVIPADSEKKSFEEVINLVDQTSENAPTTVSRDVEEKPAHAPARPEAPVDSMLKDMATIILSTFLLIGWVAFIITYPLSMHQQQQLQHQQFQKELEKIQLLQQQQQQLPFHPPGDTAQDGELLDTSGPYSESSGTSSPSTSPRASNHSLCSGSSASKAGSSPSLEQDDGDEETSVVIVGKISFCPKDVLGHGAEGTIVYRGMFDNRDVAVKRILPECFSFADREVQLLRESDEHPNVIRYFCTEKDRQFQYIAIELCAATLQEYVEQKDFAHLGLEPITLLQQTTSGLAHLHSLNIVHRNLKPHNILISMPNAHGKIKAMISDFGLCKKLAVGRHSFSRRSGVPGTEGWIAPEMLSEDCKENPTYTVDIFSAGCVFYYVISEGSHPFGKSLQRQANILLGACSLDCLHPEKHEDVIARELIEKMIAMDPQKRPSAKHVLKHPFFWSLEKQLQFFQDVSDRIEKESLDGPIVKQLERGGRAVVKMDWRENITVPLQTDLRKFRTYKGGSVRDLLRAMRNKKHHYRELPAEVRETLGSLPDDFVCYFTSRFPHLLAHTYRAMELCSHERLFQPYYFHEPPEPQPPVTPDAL
row,IC50,SMILES
1,2 nM,"CN(C)[C@H]1CC[C@H](Nc2nccc(-c3cccnc3Oc3cc(F)c(NS(=O)(=O)CCC(F)(F)F)c(F)c3F)n2)CC1 [US12071425, Compound 382]"
2,2.6 nM,"O=S(=O)(CC(F)(F)F)Nc1c(F)cc(Oc2ncccc2-c2ccnc(N[C@@H]3CNC[C@@H](F)C3)n2)c(F)c1F [US12071425, Compound 260]"
3,4.8 nM,"O=S(=O)(Nc1ccc(Oc2ncccc2-c2ccnc(N[C@H]3CCCNC3)n2)c(F)c1F)c1ccccc1Cl [US12071425, Compound 227]"

# From BindingDB's records for patent US12071425 (Genentech, 2024)
